Test results as given in the NIST ThermoML archive (doi:10.1016/j.jct.2014.03.029).

Key:
[1] = Crystal; DTA
[2] = molar heat capacity at constant pressure; details: 100 kPa, Liquid, Small sample (50 mg) DSC
[3] = Molar enthalpy of transition or fusion; details: Crystal; DSC
[4] = molar heat capacity at constant pressure; xn = mol fraction of the nth substance listed; details: 100 kPa, Liquid, Small sample (50 mg) DSC

c1ccc(-c2ccccc2)cc1 [biphenyl]
Details | Molar enthalpy of transition or fusion [kcal/mol] | Normal melting temperature [°C]
[1] | – | 69.0
[3] | 4.43 | –

[2]
Details | molar heat capacity at constant pressure [J/K/mol]
353.15 K | 271.56
373.15 K | 280.81

c1ccc(-c2ccccc2)cc1 [biphenyl] + c1ccc(Oc2ccccc2)cc1
[4], x2 = 0
Details | molar heat capacity at constant pressure [J/K/mol]
353.15 K | 271.56
373.15 K | 280.81

c1ccc(Oc2ccccc2)cc1 [diphenyl ether]
Details | Molar enthalpy of transition or fusion [kcal/mol] | Normal melting temperature [°C]
[1] | – | 26.98
[3] | 4.07 | –

[2]
Details | molar heat capacity at constant pressure [J/K/mol]
313.15 K | 261.61
333.15 K | 272.33
353.15 K | 281.69
373.15 K | 290.88

c1ccc(Oc2ccccc2)cc1 [diphenyl ether] + c1ccc(-c2ccccc2)cc1
molar heat capacity at constant pressure [J/K/mol], [4]
Details | x1 = 0.05 | x1 = 0.15 | x1 = 0.2499 | x1 = 0.4 | x1 = 0.55 | x1 = 0.705 | x1 = 0.85 | x1 = 0.95 | x1 = 1
293.15 K | – | – | – | – | – | 263.62 | – | – | –
313.15 K | – | – | – | – | 271.57 | 271.4 | 267.65 | 262.24 | 261.61
333.15 K | – | – | 270.37 | 273.51 | 278.25 | 279.18 | 276.55 | 272.24 | 272.33
353.15 K | 272.81 | 277.2 | 279.39 | 282.35 | 285.59 | 286.13 | 285.61 | 281.72 | 281.69
373.15 K | 282.42 | 285.5 | 286.99 | 290.38 | 292.44 | 293.24 | 294.5 | 290.87 | 290.88
